The text below walks through data of ChEMBL document CHEMBL1201862, “PubChem BioAssay data set” (2004).

Among the test systems are HT-29; IGROV-1; M14; MCF7; DU-145; UACC-257; SNB-75; U-251; SK-MEL-28; Hs-578T; NCI-H226; PC-3; BT-549; ACHN; NCI-H460; A498; HOP-92; MDA-MB-231; OVCAR-5.
Holding throughout (test): DTP human tumour cell line panel, 48 h

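All cell lines were grown in 96-well plates and treated with compound for 48 hours. At the GI50, growth is halved.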 Active and inactive are the calls of the source. No stated cut-off is given here; in the data, active = GI50 up to about 1.1 µM and inactive = higher.

As for `Oc1c(Cl)ccc2cccnc12`, the GI50 (commonly the concentration giving 50% growth inhibition) with HT-29 is 18.4 µM (inactive); in the assay with IGROV-1, 0.223 µM (active); in the assay with M14 it was 3 µM (inactive); in the assay on MCF7, 1.02 µM (active); with DU-145 it was 9.73 µM (inactive); with UACC-257, 6.03 µM (inactive). For the same compound, the GI50 with SNB-75 was 11.6 µM (inactive); in the assay with U-251, 3.69 µM (inactive); in the assay on SK-MEL-28 it was 22.8 µM (inactive); with Hs-578T, 4.32 µM (inactive); in the assay with NCI-H226 it was 5.12 µM (inactive); with PC-3, 4.71 µM (inactive). Also, the GI50 was 15.5 µM (inactive) in the assay with BT-549; 3.61 µM (inactive) in the assay on ACHN; 3.4 µM (inactive) with NCI-H460; 4.81 µM (inactive) in the assay with A498; < 0.01 µM (active) in the assay on HOP-92; 3.76 µM (inactive) in the assay on MDA-MB-231. The GI50 with OVCAR-5 is 5.87 µM (inactive).
In the case of `O=S(=O)(Cc1cnc(O)nc1O)Cc1cnc(O)nc1O`, the GI50 in the assay on HT-29, with IGROV-1, in the assay on M14, with MCF7, in the assay with DU-145 and with UACC-257 was > 100 µM (inactive) each time. For the same compound, the GI50 in the assay on SNB-75, in the assay on U-251, with SK-MEL-28, in the assay with Hs-578T, with NCI-H226 and in the assay with PC-3 was > 100 µM (inactive) in each case. Besides, the GI50 in the assay with BT-549, in the assay on ACHN, in the assay with NCI-H460, with A498, in the assay with HOP-92 and with MDA-MB-231 was > 100 µM (inactive) each time. Moreover, the GI50 in the assay with OVCAR-5 is > 100 µM (inactive).
For the compound `COc1cc(/C=N/N=C2NCCCN2)ccc1O`, the GI50 with HT-29, in the assay on IGROV-1, in the assay with M14, with MCF7, in the assay on DU-145 and in the assay on UACC-257 was > 100 µM (inactive) throughout. Further, the GI50 was 30.3 µM (inactive) in the assay on SNB-75; > 100 µM (inactive) in the assay with U-251; > 100 µM (inactive) in the assay on SK-MEL-28; > 100 µM (inactive) in the assay on Hs-578T; > 100 µM (inactive) with NCI-H226; > 100 µM (inactive) with PC-3. Moreover, the GI50 with BT-549 is > 100 µM (inactive); with ACHN it was > 100 µM (inactive); with NCI-H460, 82.8 µM (inactive); in the assay with A498 it was > 100 µM (inactive); in the assay with HOP-92, > 100 µM (inactive); in the assay on MDA-MB-231, > 100 µM (inactive). Besides, the GI50 in the assay with OVCAR-5 is > 100 µM (inactive).
As for `O=C(CC(Cl)(Cl)C(Cl)(Cl)Cl)c1ccccc1`, the GI50 in the assay with HT-29 is 2.06 µM (inactive); with IGROV-1, 4.84 µM (inactive); with M14, 2.62 µM (inactive); in the assay on MCF7, 3.65 µM (inactive); in the assay on DU-145 it was 3.01 µM (inactive); with UACC-257 it was 1.78 µM (inactive). The GI50 in the assay on SNB-75 was 15.3 µM (inactive); with U-251, 4.7 µM (inactive); with SK-MEL-28, 2.2 µM (inactive); with Hs-578T, 3.76 µM (inactive); with NCI-H226, 3.63 µM (inactive); in the assay with PC-3, 14.4 µM (inactive). Further, the GI50 in the assay with BT-549 was 10.7 µM (inactive); with ACHN, 2.27 µM (inactive); in the assay on NCI-H460 it was 12 µM (inactive); with A498, 18.4 µM (inactive); with HOP-92, 19.9 µM (inactive); with MDA-MB-231 it was 2.11 µM (inactive). Further, in the assay with OVCAR-5, the GI50 is 11.2 µM (inactive).
Turning to `CCO/N=C(/CC)c1ccc(Br)s1`, the GI50 with HT-29, in the assay with IGROV-1, with M14, in the assay with MCF7, with DU-145 and in the assay with UACC-257 was > 100 µM (inactive) throughout. Further, the GI50 in the assay with SNB-75, in the assay on U-251, in the assay on SK-MEL-28, in the assay on Hs-578T, with NCI-H226 and in the assay with PC-3 was > 100 µM (inactive) throughout. For the same compound, the GI50 in the assay with BT-549, in the assay on ACHN, with NCI-H460, with A498, in the assay on HOP-92 and with MDA-MB-231 was > 100 µM (inactive) each time. Further, in the assay with OVCAR-5, the GI50 was > 100 µM (inactive).
For the compound `CC(C)(C)c1cc(/C=C(\C#N)C(=O)NCCO)cc(C(C)(C)C)c1O`, the GI50 in the assay with HT-29 was 21 µM (inactive); with IGROV-1, 40.7 µM (inactive); in the assay on M14 it was 17.1 µM (inactive); in the assay with MCF7 it was 26.5 µM (inactive); in the assay with DU-145, 34 µM (inactive); in the assay with UACC-257, 17.5 µM (inactive). Besides, the GI50 with SNB-75 was 31.8 µM (inactive); with U-251, 18 µM (inactive); in the assay with SK-MEL-28, 21.6 µM (inactive); with Hs-578T it was 37.8 µM (inactive); in the assay with NCI-H226 it was 19.5 µM (inactive); in the assay on PC-3, 18.2 µM (inactive). Also, the GI50 was 25.1 µM (inactive) in the assay on BT-549; 27.2 µM (inactive) in the assay with ACHN; 20.7 µM (inactive) with NCI-H460; 20.3 µM (inactive) with A498; 45.7 µM (inactive) in the assay with HOP-92; 18.4 µM (inactive) in the assay with MDA-MB-231. Also, the GI50 in the assay on OVCAR-5 is 24.1 µM (inactive).
For the compound `C[C@@]12C[C@@H](c3ccccc3O1)N1Cc3ccccc3CSC1=N2`, the GI50 in the assay on HT-29 was 38.3 µM (inactive); in the assay with IGROV-1, > 100 µM (inactive); in the assay on M14 it was 90.4 µM (inactive); with MCF7 it was 50.4 µM (inactive); in the assay with DU-145 it was 69.3 µM (inactive); in the assay with UACC-257, 66.5 µM (inactive). Further, the GI50 in the assay on SNB-75 is > 100 µM (inactive); in the assay with U-251, 52.8 µM (inactive); with SK-MEL-28, > 100 µM (inactive); in the assay on Hs-578T, > 100 µM (inactive); in the assay with NCI-H226, > 100 µM (inactive); in the assay with PC-3, 83.6 µM (inactive). In addition, the GI50 with BT-549 is 95.9 µM (inactive); with ACHN, > 100 µM (inactive); in the assay with NCI-H460, 42.8 µM (inactive); in the assay on A498, > 100 µM (inactive); in the assay on HOP-92, > 100 µM (inactive); in the assay with MDA-MB-231, > 100 µM (inactive). In addition, in the assay on OVCAR-5, the GI50 is > 100 µM (inactive).
Turning to `CCS(=O)(=O)CCn1cnc2c1c(=O)n(C)c(=O)n2C`, the GI50 with HT-29, with IGROV-1, in the assay on M14, in the assay with MCF7, with DU-145 and in the assay on UACC-257 was > 100 µM (inactive) in each case. The GI50 with SNB-75, in the assay on U-251, with SK-MEL-28, in the assay with Hs-578T, in the assay on NCI-H226 and with PC-3 was > 100 µM (inactive) each time. The GI50 in the assay with BT-549, in the assay on ACHN, in the assay with NCI-H460, in the assay on A498, in the assay on HOP-92 and with MDA-MB-231 was > 100 µM (inactive) throughout. Moreover, in the assay with OVCAR-5, the GI50 is > 100 µM (inactive).
In the case of `CC(CC(=O)O)C(C(=O)O)C(=O)O` (centres undefined), the GI50 in the assay on HT-29, with IGROV-1, with M14, in the assay with MCF7, with DU-145 and in the assay with UACC-257 was > 100 µM (inactive) in each case. The GI50 in the assay on SNB-75, in the assay with U-251, in the assay on SK-MEL-28, in the assay on Hs-578T, in the assay with NCI-H226 and with PC-3 was > 100 µM (inactive) throughout. For the same compound, the GI50 with BT-549, in the assay with ACHN, in the assay on NCI-H460, in the assay with A498, in the assay on HOP-92 and in the assay with MDA-MB-231 was > 100 µM (inactive) throughout. Moreover, the GI50 in the assay on OVCAR-5 is > 100 µM (inactive).
As to `CC1(C)N/C(=C\[N+](=O)[O-])C(C)(C)N1O`, the GI50 with HT-29, in the assay with IGROV-1, in the assay with M14, with MCF7, in the assay on DU-145 and in the assay on UACC-257 was > 10 µM (inactive) each time. Further, the GI50 with SNB-75, with U-251, with SK-MEL-28, with Hs-578T, with NCI-H226 and with PC-3 was > 10 µM (inactive) in each case. Also, the GI50 in the assay on BT-549, in the assay with ACHN, with NCI-H460, in the assay on A498, in the assay with HOP-92 and in the assay on MDA-MB-231 was > 10 µM (inactive) each time. For the same compound, the GI50 in the assay on OVCAR-5 is > 10 µM (inactive).
On to `Cc1sc2ncnc(NCCc3ccccc3)c2c1C`, for which the GI50 in the assay on HT-29 was 14.6 µM (inactive); in the assay on IGROV-1, 12.7 µM (inactive); in the assay with M14, 18.1 µM (inactive); in the assay on MCF7, 12.5 µM (inactive); in the assay on DU-145 it was 18.8 µM (inactive); in the assay with UACC-257, 1.04 µM (active). For the same compound, the GI50 in the assay on SNB-75 is 16.4 µM (inactive); in the assay on U-251, 11.6 µM (inactive); in the assay with SK-MEL-28, 17.8 µM (inactive); with Hs-578T it was 20.7 µM (inactive); with NCI-H226 it was 11.6 µM (inactive); in the assay on PC-3 it was 17.3 µM (inactive). The GI50 is 15.2 µM (inactive) in the assay on BT-549; 12.4 µM (inactive) with ACHN; 8.99 µM (inactive) in the assay on NCI-H460; 11.1 µM (inactive) in the assay with A498; 0.94 µM (active) in the assay on HOP-92; 14.6 µM (inactive) in the assay on MDA-MB-231. Also, the GI50 in the assay with OVCAR-5 was 15.4 µM (inactive).
